The source of these data is article PMC7894426, “Influence of verapamil on the pharmacokinetics of rotundic acid in rats and its potential mechanism” (Pharmaceutical Biology, 2021).

Read-outs that look alike come from different tables or passages of the source.

For one series, the system named is MDCKII-MDR1 cells. Briefly: MTS cell-proliferation assay. It is filed as cell-based, canine. The note with it: 25 µM RA. A general note: Tetrazolium assays rely on reduction of a dye to a coloured formazan, in cell work by metabolically active cells.
The next series concerns Caco-2 cells. Briefly: MTS cell-proliferation assay. The note with it: 25 µM RA. It is filed as cell-based, human.
The next series addresses T1, CYP3A4 (Homo sapiens, UniProt P08684).
T1 construct: purchased Research Institute for Liver Disease (Shanghai) Co., Ltd
The series can be described thus: Metabolic depletion of RA by rhCYP3A4. The class given is in vitro ADME. As to the method: (§1) The metabolic stability of RA was evaluated against five rhCYPs (1A2, 2C8, 2C9, 2D6 and 3A4). Incubation was taken place in 0.1 M sodium phosphate buffer (pH 7.4) containing 5 mM MgCl2, 1 mM NADPH, and 25 pM rhCYP enzyme protein at 37 °C in a total volume of 1 mL. After pre-incubated for 5 min, the reactions were started by the addition of RA methanol solution (final concentration of 2 µM). Aliquots of 50 µL incubation solution were collected from the reaction at 0, 5, 10, 20 and 30 min, and quenched with 50 µL ice-cold methanol (containing 0.5% formic acid) and 100 µL ice-cold acetonitrile containing IS (10 ng/mL). The heat-inactivated rhCYP3A4 were used as negative controls. All reactions were conducted in triplicate, followed by LC-MS/MS analysis. Results presented in percentage of drug remaining in incubation starting at 100% at time zero.

Series [1] can be described thus: Bidirectional transport across MDCKII-Mock cell monolayers. The note with it: dog, MDCK, MDCKII-Mock, 20 min; for efflux ratio at 20 min: read-out: RE (efflux ratio). The class given is in vitro ADME, canine. As to the method:
The qualified monolayers were used for transport studies. […] Each experiment was carried out in triplicate.

For series [2] the following is noted: rats, oral administration; ref Nan et al. [2016]; cited from earlier work.
In the next series the test system is MDCKII-Mock cells. Briefly: MTS cell-proliferation assay. It is filed as cell-based, canine. The conditions noted are these: 25 µM RA.
For another series, the target named is T2, CYP1A2 (Homo sapiens, UniProt P05177).
T2 construct: purchased Research Institute for Liver Disease (Shanghai) Co., Ltd
T2 sequence (P05177 1-516): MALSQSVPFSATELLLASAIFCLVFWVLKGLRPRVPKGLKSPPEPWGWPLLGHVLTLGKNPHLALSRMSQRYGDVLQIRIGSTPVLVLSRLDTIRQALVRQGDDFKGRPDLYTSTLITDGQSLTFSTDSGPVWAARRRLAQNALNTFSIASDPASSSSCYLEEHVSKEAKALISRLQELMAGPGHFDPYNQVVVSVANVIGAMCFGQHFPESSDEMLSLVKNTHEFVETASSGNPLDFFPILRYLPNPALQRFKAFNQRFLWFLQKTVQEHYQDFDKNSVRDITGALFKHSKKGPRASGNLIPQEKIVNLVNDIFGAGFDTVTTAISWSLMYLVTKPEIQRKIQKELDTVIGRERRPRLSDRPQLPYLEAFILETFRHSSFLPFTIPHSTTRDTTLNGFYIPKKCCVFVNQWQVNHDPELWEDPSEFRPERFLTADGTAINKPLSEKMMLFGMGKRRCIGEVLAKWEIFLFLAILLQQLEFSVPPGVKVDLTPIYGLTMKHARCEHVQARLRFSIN
The series can be described thus: Metabolic depletion of RA by rhCYP1A2. It is filed as in vitro ADME. The note with it: rhCYP1A2 25 pM, RA 2 µM, 30 min. As to the method:
as §1

[3] abbreviates: pH 7.4, with verapamil 50 µM, + 50 µM verapamil.

T1 sequence (P08684 whole entry): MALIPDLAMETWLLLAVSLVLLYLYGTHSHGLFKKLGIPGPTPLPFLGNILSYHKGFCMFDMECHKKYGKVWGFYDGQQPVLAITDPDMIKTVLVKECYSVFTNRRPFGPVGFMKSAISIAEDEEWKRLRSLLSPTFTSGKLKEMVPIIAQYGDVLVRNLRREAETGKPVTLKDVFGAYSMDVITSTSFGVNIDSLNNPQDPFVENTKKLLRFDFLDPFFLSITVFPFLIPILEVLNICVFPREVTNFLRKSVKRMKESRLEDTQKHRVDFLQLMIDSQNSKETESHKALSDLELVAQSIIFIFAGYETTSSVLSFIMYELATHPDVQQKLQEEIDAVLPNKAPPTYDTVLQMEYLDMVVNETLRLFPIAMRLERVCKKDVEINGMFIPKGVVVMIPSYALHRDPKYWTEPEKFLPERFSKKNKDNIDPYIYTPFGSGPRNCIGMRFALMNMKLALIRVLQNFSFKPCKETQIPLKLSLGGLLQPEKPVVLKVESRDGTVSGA

On to `C[C@@H]1CC[C@]2(C(=O)O)CC[C@]3(C)C(=CC[C@@H]4[C@@]5(C)CC[C@H](O)[C@@](C)(CO)[C@@H]5CC[C@]43C)[C@@H]2[C@]1(C)O` [RA, Rotundic acid], for which the “effect on cell proliferation (MTS)” value in the series with MDCKII-MDR1 cells, in the series with Caco-2 cells and with MDCKII-Mock cells was “did not influence the cell proliferation” throughout. Besides, the “degradation in negative control” value at CYP3A4 (heat-inactivated rhCYP3A4, RA 2 µM) was “No obvious degradation”. The compound further showed an RA converted at CYP3A4 (rhCYP3A4 25 pM, RA 2 µM, 30 min) of 88.2%. Moreover, the Papp A→B – broadly, the apparent permeability from the apical to the basolateral side of a cell layer – at 20 min in series [1] (setting [3]) is 6.52 ± 0.864 ×10⁻⁶ cm/s; in series [1] (pH 7.4, without verapamil) it was 6.07 ± 0.886 ×10⁻⁶ cm/s. Besides, the apparent permeability from basolateral to apical (Papp B→A) (as a rule, how fast a substance crosses the layer from the basolateral side) at 20 min in series [1] (setting [3]) is 6.23 ± 0.895 ×10⁻⁶ cm/s; in series [1] (pH 7.4, without verapamil), 6.72 ± 2.03 ×10⁻⁶ cm/s. The efflux ratio at 20 min in series [1] (setting [3]) came out at 0.955; in series [1] (pH 7.4, without verapamil), 1.11. Besides, the oral bioavailability in series [2] is listed as 4.52%. Further, the “metabolism of RA (substrate depletion)” value on CYP1A2 is “hardly metabolized”.
